In article PMC3478670 (Journal of medicinal chemistry, 2012):

Tested on: not listed separately
Test: in vitro
Details: human, pooled human liver microsomes, pH 7.4

| SMILES | microsomal CLint at 1 μM [µL/min/mg] |
| --- | --- |
| C=C(C)[C@@H]1CC[C@]2(C(=O)N3CCN(CCCCC(=O)O)CC3)CC[C@]3(C)[C@H](CC[C@@H]4[C@@]5(C)CC[C@H](OC(=O)CC(C)(C)C(=O)O)C(C)(C)[C@@H]5CC[C@]43C)[C@@H]12 [Compound 41, N-[3β-O-(3′,3′-Dimethylsuccinyl)-lup-20(29)-en-28-oyl]-5-piperazinepentanoic acid] | 2.1 |

Tested on: HIV-1NL4-3
Test: HIV-1NL4-3 replication inhibition assay in MT-4 lymphocytes
Type: cell-based
Details: HIV-1NL4-3 infected MT-4 cells

| SMILES | anti-HIV replication activity (in words) |
| --- | --- |
| C=C(C)[C@@H]1CC[C@]2(C(=O)O)CC[C@]3(C)[C@H](CC[C@@H]4[C@@]5(C)CC[C@H](OCOCCOC)C(C)(C)[C@@H]5CC[C@]43C)[C@@H]12 [Compound 6, 3β-Methoxyethoxymethoxy-betulinic acid] | did not show anti-HIV activity |
| C=C(C)[C@@H]1CC[C@]2(C(=O)O)CC[C@]3(C)[C@H](CC[C@@H]4[C@@]5(C)CC[C@H](OCOC)C(C)(C)[C@@H]5CC[C@]43C)[C@@H]12 [Compound 5, 3β-Methoxymethoxy-betulinic acid] | did not show anti-HIV activity |
| C=C(C)[C@@H]1CC[C@]2(C(=O)OCCCCCCCC)CC[C@]3(C)[C@H](CC[C@@H]4[C@@]5(C)CC[C@H](OC(=O)CC(C)(C)C(=O)O)C(C)(C)[C@@H]5CC[C@]43C)[C@@H]12 [Compound 23, Octyl 3β-O-(3′,3′-dimethylsuccinyl)-lup-20(29)-en-28-oate] | no inhibition of HIV-1 replication |
| C=C(C)[C@@H]1CC[C@]2(C(=O)OCOC)CC[C@]3(C)[C@H](CC[C@@H]4[C@@]5(C)CC[C@H](OCOC)C(C)(C)[C@@H]5CC[C@]43C)[C@@H]12 [Compound 3, Methoxymethyl 3β-methoxymethoxy-lup-20(29)-en-28-oate] | did not show anti-HIV activity |
| C=C(C)[C@@H]1CC[C@]2(C(=O)OCOC)CC[C@]3(C)[C@H](CC[C@@H]4[C@@]5(C)CC[C@H](O)C(C)(C)[C@@H]5CC[C@]43C)[C@@H]12 [Compound 7, Methoxymethyl 3β-hydroxy-lup-20(29)-en-28-oate] | did not show anti-HIV activity |
| C=C(C)[C@@H]1CC[C@]2(C(=O)OCOCCOC)CC[C@]3(C)[C@H](CC[C@@H]4[C@@]5(C)CC[C@H](O)C(C)(C)[C@@H]5CC[C@]43C)[C@@H]12 [Compound 8, Methoxyethoxymethyl 3β-hydroxy-lup-20(29)-en-28-oate] | did not show anti-HIV activity |
| C=C(C)[C@@H]1CC[C@]2(C(=O)OCOCCOC)CC[C@]3(C)[C@H](CC[C@@H]4[C@@]5(C)CC[C@H](OCOCCOC)C(C)(C)[C@@H]5CC[C@]43C)[C@@H]12 [Compound 4, Methoxyethoxymethyl 3β-methoxyethoxymethoxy-lup-20(29)-en-28-oate] | did not show anti-HIV activity |
